Measurements published in article PMC7587356, “High-Throughput Screening for Inhibitors of the SARS-CoV-2 Protease Using a FRET-Biosensor” (Molecules, 2020).
Structures can show the parent of a compound that is named as a salt. Where two headings read alike, the source gives them in different places.

Biological target: SARS-CoV-2 3CLpro (Severe acute respiratory syndrome coronavirus 2, UniProt P0DTD1)
Experiment: biochemical
Type: biochemical
Design: Replicate_1 / Replicate_2 / mean / mean (LOPAC_screen_w_protease): unit not given here
Conditions: for inhibition at 5 µM: 4 h
[1] = sheet LOPAC_screen_w_protease, LOPAC1280 primary screen with protease, 5 µM compound, mean of the two replicates
[2] = sheet LOPAC_screen_w_protease, LOPAC1280 primary screen with protease, 5 µM compound, replicate 2
[3] = sheet LOPAC_screen_w_protease, primary screen with protease, mean of two replicates
[4] = sheet LOPAC_screen_w_protease, primary screen with protease, replicate 1
[5] = sheet LOPAC_screen_w_protease, primary screen with protease, replicate 2
[6] = LOPAC1280 primary screen with protease, 5 µM compound, replicate 1, read-out: Replicate_1 (LOPAC_screen_w_protease)
[7] = LOPAC1280 primary screen with protease, 5 µM compound, replicate 2, read-out: Replicate_2 (LOPAC_screen_w_protease)
[8] = LOPAC1280 primary screen with protease, 5 µM compound, mean of the two replicates
[9] = sheet LOPAC_screen_w_protease, LOPAC1280 at 5 µM, mean of two replicates
[10] = sheet LOPAC_screen_w_protease, LOPAC1280 at 5 µM, replicate 1
[11] = sheet LOPAC_screen_w_protease, LOPAC1280 at 5 µM, replicate 2
[12] = LOPAC1280 primary screen with protease, 5 µM compound, replicate 1
[13] = LOPAC1280 primary screen with protease, 5 µM compound, replicate 2
[14] = sheet LOPAC_screen_w_protease, primary screen with protease, compound at 5 µM, mean of two replicates, read-out: mean
[15] = sheet LOPAC_screen_w_protease, primary screen with protease, compound at 5 µM, replicate 1, read-out: Replicate_1
[16] = sheet LOPAC_screen_w_protease, primary screen with protease, compound at 5 µM, replicate 2, read-out: Replicate_2
[17] = sheet LOPAC_screen_w_protease, primary screen of LOPAC1280 at 5 µM with protease, mean of the two replicates
[18] = sheet LOPAC_screen_w_protease, primary screen of LOPAC1280 at 5 µM with protease, replicate 1
[19] = sheet LOPAC_screen_w_protease, primary screen of LOPAC1280 at 5 µM with protease, replicate 2
[20] = sheet LOPAC_screen_w_protease, LOPAC1280 primary screen with protease, 5 µM compound, replicate 1
[21] = LOPAC1280 primary screen with protease, 5 µM compound, mean of two replicates
[22] = sheet LOPAC_screen_w_protease, primary screen with protease, compound at 5 µM, mean of two replicates
[23] = sheet LOPAC_screen_w_protease, primary screen with protease, compound at 5 µM, replicate 1
[24] = sheet LOPAC_screen_w_protease, primary screen with protease, compound at 5 µM, replicate 2
[25] = sheet LOPAC_screen_w_protease, LOPAC1280 primary screen at 5 µM, with protease, mean of the two replicates
[26] = sheet LOPAC_screen_w_protease, LOPAC1280 primary screen at 5 µM, with protease, replicate 1
[27] = sheet LOPAC_screen_w_protease, LOPAC1280 primary screen at 5 µM, with protease, replicate 2

Cc1cn[nH]c1.Cl [4-Methylpyrazole hydrochloride]
mean [1]: 4.54
Replicate_2 [2]: 6.559

CC1=C(/C=C/C(C)=C/C=C/C(C)=C/C(=O)Nc2ccc(O)cc2)C(C)(C)CCC1 [Retinoic acid p-hydroxyanilide]
mean [3]: 2.295
Replicate_1 [4]: 3.365
Replicate_2 [5]: 1.2239

O=C(O)C1=CCNCC1 [Isoguvacine hydrochloride]
inhibition at 5 µM [6]: 2.64%
inhibition at 5 µM [7]: 1.29%
mean (LOPAC_screen_w_protease) [8]: 1.964

CCN(CC)C(=O)c1ccc(O)c(OC)c1 [Vanillic acid diethylamide]
mean [9]: 0.9703
Replicate_1 [10]: 1.198
Replicate_2 [11]: 0.7424

Cl.N=C(N)NN [Aminoguanidine hydrochloride]
mean [3]: 2.381
Replicate_1 [4]: 2.212
Replicate_2 [5]: 2.55

CCn1c(=O)[nH]c2cc(Cl)c(Cl)cc21 [DCEBIO]
mean (LOPAC_screen_w_protease) [8]: 1.96
Replicate_1 (LOPAC_screen_w_protease) [12]: 3.009
Replicate_2 (LOPAC_screen_w_protease) [13]: 0.9113

CCn1ccnc1CC1COc2ccccc2O1 (stereo not shown) [Imiloxan hydrochloride]
inhibition at 5 µM [14]: 3.1%
inhibition at 5 µM [15]: 4.11%
inhibition at 5 µM [16]: 2.09%

CCCN1CCOC2c3cc(O)ccc3OCC21.Cl (racemic) [(±)-PD 128,907 hydrochloride]
mean [17]: 3.436
Replicate_1 [18]: 4.647
Replicate_2 [19]: 2.226

CC(=O)NCCc1ccc(O)c(O)c1.O [N-Acetyldopamine monohydrate]
mean (LOPAC screen with protease) (sheet LOPAC_screen_w_protease, primary screen at 5 µM, mean of two replicates): 81.0563
Replicate_1 (LOPAC screen with protease) (sheet LOPAC_screen_w_protease, primary screen at 5 µM, replicate 1): 83.9163
Replicate_2 (LOPAC screen with protease) (sheet LOPAC_screen_w_protease, primary screen at 5 µM, replicate 2): 78.1962

S-Nitroso-N-acetylpenicillamine
mean [1]: 5.369
Replicate_1 [20]: 5.411
Replicate_2 [2]: 5.326

CC1CCCC=CC2CC(O)CC2C(O)C=CC(=O)O1 (stereo not shown)
mean (LOPAC_screen_w_protease) [21]: 1.348
Replicate_1 (LOPAC_screen_w_protease) [12]: 0.7493
Replicate_2 (LOPAC_screen_w_protease) [13]: 1.9466

CC(=O)OCC(=O)[C@@]1(O)CC[C@H]2[C@@H]3CCC4=CC(=O)CC[C@]4(C)[C@H]3C(=O)C[C@@]21C [Cortisone 21-acetate]
inhibition at 5 µM [6]: 2.66%
inhibition at 5 µM [7]: 0.881%
mean (LOPAC_screen_w_protease) [8]: 1.771

COc1cccc(C(=O)NCCN2CCN(c3ccc(Cl)cc3)CC2)c1
mean [3]: 2.269
Replicate_1 [4]: 1.008
Replicate_2 [5]: 3.529

CCCOC(=O)c1c(-c2ccccc2)nc(CC)c(C(=O)SCC)c1CCC [MRS 1523]
mean [22]: 2.972
Replicate_1 [23]: 3.943
Replicate_2 [24]: 2.002

Nc1ncnc2c1ncn2C1CCCC1 [9-cyclopentyladenine]
mean [22]: 2.587
Replicate_1 [23]: 2.53
Replicate_2 [24]: 2.643

O=C(CCc1ccc(O)cc1)c1c(O)cc(O)cc1O [Phloretin]
inhibition at 5 µM (read-out: Replicate_1 (LOPAC screen with protease)): 8.32%
inhibition at 5 µM (read-out: Replicate_2 (LOPAC screen with protease)): 5.55%
inhibition at 5 µM (read-out: mean (LOPAC screen with protease)): 6.94%

COc1ccc2c(c[n+](C)c3c4cc5c(cc4ccc23)OCO5)c1OC [Chelerythrine chloride]
inhibition at 5 µM (sheet LOPAC_screen_w_protease, primary screen at 5 µM, mean of two replicates, read-out: mean (LOPAC screen with protease)): 11.5%
inhibition at 5 µM (sheet LOPAC_screen_w_protease, primary screen at 5 µM, replicate 1, read-out: Replicate_1 (LOPAC screen with protease)): 12.7%
inhibition at 5 µM (sheet LOPAC_screen_w_protease, primary screen at 5 µM, replicate 2, read-out: Replicate_2 (LOPAC screen with protease)): 10.3%

CN1CCN(C2=Nc3ccccc3Oc3ccc(Cl)cc32)CC1 [Loxapine succinate]
inhibition at 5 µM (sheet LOPAC_screen_w_protease, primary screen with protease, 5 µM, mean of two replicates, read-out: mean): -0.686%
inhibition at 5 µM (sheet LOPAC_screen_w_protease, primary screen with protease, 5 µM, replicate 1, read-out: Replicate_1): -0.577%
inhibition at 5 µM (sheet LOPAC_screen_w_protease, primary screen with protease, 5 µM, replicate 2, read-out: Replicate_2): -0.795%

COc1ccc(CCCOC(Cn2ccnc2)c2ccc(OC)cc2)cc1 (stereo not shown) [SKF 96365]
inhibition at 5 µM [6]: 1.52%
inhibition at 5 µM [7]: 2.09%
mean (LOPAC_screen_w_protease) [8]: 1.802

C[C@@]1(C2CCCC2)Cc2cc(OCC(=O)O)c(Cl)c(Cl)c2C1=O [R(+)-IAA-94]
mean [22]: 3.0784
Replicate_2 [24]: 3.637

C[C@@H]1O[C@@H](O[C@H]2C[C@@H](O)[C@]3(CO)[C@H]4[C@H](O)C[C@]5(C)[C@@H](C6=CC(=O)OC6)CC[C@]5(O)[C@@H]4CC[C@]3(O)C2)[C@H](O)[C@H](O)[C@H]1O [Ouabain]
inhibition at 5 µM (read-out: Replicate_1): 3.98%
inhibition at 5 µM (read-out: Replicate_2): 1.68%
inhibition at 5 µM (read-out: mean): 2.83%

C[C@H]1c2cccc(O)c2C(=O)C2=C(O)[C@]3(O)C(=O)C(C(N)=O)=C(O)[C@@H](N(C)C)[C@@H]3[C@@H](O)[C@@H]21 [Doxycycline hydrochloride]
inhibition at 5 µM (sheet LOPAC_screen_w_protease, LOPAC1280 primary screen with protease, 5 µM compound, mean of the two replicates, read-out: mean): 4.21%
inhibition at 5 µM (sheet LOPAC_screen_w_protease, LOPAC1280 primary screen with protease, 5 µM compound, replicate 1, read-out: Replicate_1): 5.78%
inhibition at 5 µM (sheet LOPAC_screen_w_protease, LOPAC1280 primary screen with protease, 5 µM compound, replicate 2, read-out: Replicate_2): 2.65%

CN1CCN(c2ccc3ccccc3n2)CC1.O=C(O)/C=C\C(=O)O.O=C(O)/C=C\C(=O)O [Quipazine, N-methyl-, dimaleate]
mean [25]: 0.6078
Replicate_1 [26]: 1.027
Replicate_2 [27]: 0.1891

Nc1nc(Cl)nc2c1ncn2[C@@H]1O[C@H](COP(=O)(O)OP(=O)(O)OP(=O)(O)O)C(O)C1O (stereo in doubt)
mean (LOPAC_screen_w_protease) [21]: 1.575
Replicate_1 (LOPAC_screen_w_protease) [12]: 3.171
Replicate_2 (LOPAC_screen_w_protease) [13]: -0.0216

COc1cccc(-c2cc(=O)c3ccccc3o2)c1N [PD 98,059]
Replicate_1: 3.541
Replicate_2: 1.402
mean: 2.471

O=C1NC(c2cccc([N+](=O)[O-])c2)=CCN1c1ccccc1O [Icilin]
inhibition at 5 µM (sheet LOPAC_screen_w_protease, primary screen of LOPAC1280 at 5 µM with protease, mean of the two replicates, read-out: mean): 3.88%
inhibition at 5 µM (sheet LOPAC_screen_w_protease, primary screen of LOPAC1280 at 5 µM with protease, replicate 1, read-out: Replicate_1): 4.52%
inhibition at 5 µM (sheet LOPAC_screen_w_protease, primary screen of LOPAC1280 at 5 µM with protease, replicate 2, read-out: Replicate_2): 3.25%

CCOC(=O)C(C)(C)Oc1ccc(Cl)cc1 [Clofibrate]
inhibition at 5 µM [14]: 2.71%
inhibition at 5 µM [15]: 1.49%
inhibition at 5 µM [16]: 3.93%

COc1ccc(NC(=O)c2ccc(-c3ccc(-c4noc(C)n4)cc3C)cc2)cc1N1CCN(C)CC1.Cl [GR 127935 hydrochloride]
mean [25]: 0.6456
Replicate_1 [26]: 0.5978
Replicate_2 [27]: 0.6934

Cl.Cl.Cl.Ic1ccc(N2CCN(Cc3c[nH]c4ncccc34)CC2)cc1 [L-750,667 trihydrochloride]
mean [1]: 4.601
Replicate_1 [20]: 3.085
Replicate_2 [2]: 6.117

CN1C(=O)CC[C@H]1c1cccnc1 [(-)-Cotinine]
mean [3]: 2.4459
Replicate_1 [4]: 2.442
Replicate_2 [5]: 2.45

N#C/C(=C\c1ccc(O)c(O)c1)C(=O)N1CCc2ccccc21 [Tyrphostin AG 528]
mean [17]: 3.92
Replicate_1 [18]: 3.707
Replicate_2 [19]: 4.133

CC(C)(CO)Cc1cc(C(C)(C)C)c(O)c(C(C)(C)C)c1 [CGP-7930]
mean [9]: 1.164
Replicate_1 [10]: 0.8273
Replicate_2 [11]: 1.5

C[N+](C)(C)CCOC(N)=O [Carbachol]
inhibition at 5 µM [6]: 1.69%
inhibition at 5 µM [7]: 1.06%
mean (LOPAC_screen_w_protease) [21]: 1.3763

CCN1C(=O)C=CC1=O [N-Ethylmaleimide]
inhibition at 5 µM [6]: 5.02%
inhibition at 5 µM [7]: -1.33%
mean (LOPAC_screen_w_protease) [8]: 1.849

Cl.O=S(=O)(c1cccc2c(Cl)cccc12)N1CCCNCC1 [ML-9]
Replicate_1: 1.4227
Replicate_2: 4.79
mean: 3.1064

O=c1[nH]c(=O)n([C@H]2C[C@H](O)[C@@H](CO)O2)cc1Br [5-Bromo-2'-deoxyuridine]
inhibition at 5 µM [6]: 1.74%
inhibition at 5 µM [7]: 1.06%
mean (LOPAC_screen_w_protease) [21]: 1.398

CC[C@@H](CO)NC(=O)[C@@H]1C=C2c3cccc4[nH]cc(c34)C[C@H]2N(C)C1 [Methylergonovine maleate]
inhibition at 5 µM (read-out: Replicate_1): 1.27%
inhibition at 5 µM (read-out: Replicate_2): 0.625%
inhibition at 5 µM (read-out: mean): 0.949%
